Experiment [1] deals with HeLa. The experiment can be described thus: HeLa cell cytotoxicity, dose response, cytotoxicity control for MITF activator project, CellTiter-Glo luminescence, cherry-pick samples (AID 540259). Particulars: Homo sapiens. It counts as functional, cell-based.
In experiment [2] the target is T1, Alkaline phosphatase, tissue-nonspecific isozyme (Homo sapiens, UniProt P05186).
T1 sequence (P05186 whole entry): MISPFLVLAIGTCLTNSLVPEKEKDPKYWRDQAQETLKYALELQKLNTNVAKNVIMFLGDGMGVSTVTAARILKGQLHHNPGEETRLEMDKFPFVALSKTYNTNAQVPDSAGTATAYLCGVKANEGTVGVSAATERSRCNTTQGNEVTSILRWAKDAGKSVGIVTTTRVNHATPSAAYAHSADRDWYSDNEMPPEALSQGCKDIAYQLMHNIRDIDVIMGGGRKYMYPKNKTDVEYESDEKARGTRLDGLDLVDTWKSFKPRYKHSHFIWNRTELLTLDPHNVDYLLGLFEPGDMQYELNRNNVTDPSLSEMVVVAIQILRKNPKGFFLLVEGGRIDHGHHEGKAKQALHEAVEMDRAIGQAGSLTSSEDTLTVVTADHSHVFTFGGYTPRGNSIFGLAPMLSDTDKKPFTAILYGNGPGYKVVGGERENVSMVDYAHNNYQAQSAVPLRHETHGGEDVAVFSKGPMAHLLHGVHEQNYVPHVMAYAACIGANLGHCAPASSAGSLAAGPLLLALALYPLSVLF
Put plainly: inhibition of tissue-nonspecific alkaline phosphatase – biochemical, dose response (AID 488882). It is filed as functional.

Experiment [3] concerns the target Intestinal-type alkaline phosphatase (Mus musculus, UniProt P24822). The experiment can be described thus: PubChem AID 488874. It is filed as functional.
Experiment [4] concerns the target Prothrombin (Bos taurus, UniProt P00735). The experiment can be described thus: thrombin inhibition, dose response, biochemical, fluorescence polarization, uHTS hits (AID 602369). It is filed as functional.
The target of experiment [5] is 72 kDa type IV collagenase (Homo sapiens, UniProt P08253). The experiment can be described thus: Dose Response validation of uHTS RPN11 inhibitor hits using a MMP-2 Fluorescence assay. It counts as functional.
Chain of 72 kDa type IV collagenase (P08253 whole entry): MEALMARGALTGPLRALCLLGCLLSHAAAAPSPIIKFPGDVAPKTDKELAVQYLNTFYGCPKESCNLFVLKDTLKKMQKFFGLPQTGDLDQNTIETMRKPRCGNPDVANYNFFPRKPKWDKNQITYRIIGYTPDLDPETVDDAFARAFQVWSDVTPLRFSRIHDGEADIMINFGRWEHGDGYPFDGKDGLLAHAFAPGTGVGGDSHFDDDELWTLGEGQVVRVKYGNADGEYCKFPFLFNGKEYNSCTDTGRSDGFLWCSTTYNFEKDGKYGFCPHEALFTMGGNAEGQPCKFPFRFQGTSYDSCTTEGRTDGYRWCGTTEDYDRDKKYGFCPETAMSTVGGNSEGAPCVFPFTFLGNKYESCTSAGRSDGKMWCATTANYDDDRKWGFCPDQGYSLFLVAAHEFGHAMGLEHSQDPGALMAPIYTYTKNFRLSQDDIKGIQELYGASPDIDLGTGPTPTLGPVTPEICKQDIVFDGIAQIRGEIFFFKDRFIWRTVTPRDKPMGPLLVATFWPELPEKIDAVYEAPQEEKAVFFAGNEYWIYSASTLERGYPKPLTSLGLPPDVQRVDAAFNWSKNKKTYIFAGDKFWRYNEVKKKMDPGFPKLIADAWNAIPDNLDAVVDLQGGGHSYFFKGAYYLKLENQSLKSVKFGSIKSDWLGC
Experiment [6] concerns the target Heat shock protein HSP 90-alpha (Homo sapiens, UniProt P07900). It is filed as functional, organism-based.
The target of experiment [7] is T2, Aminopeptidase N (Plasmodium falciparum FcB1/Columbia, UniProt O96935).
T2 sequence (O96935 whole entry): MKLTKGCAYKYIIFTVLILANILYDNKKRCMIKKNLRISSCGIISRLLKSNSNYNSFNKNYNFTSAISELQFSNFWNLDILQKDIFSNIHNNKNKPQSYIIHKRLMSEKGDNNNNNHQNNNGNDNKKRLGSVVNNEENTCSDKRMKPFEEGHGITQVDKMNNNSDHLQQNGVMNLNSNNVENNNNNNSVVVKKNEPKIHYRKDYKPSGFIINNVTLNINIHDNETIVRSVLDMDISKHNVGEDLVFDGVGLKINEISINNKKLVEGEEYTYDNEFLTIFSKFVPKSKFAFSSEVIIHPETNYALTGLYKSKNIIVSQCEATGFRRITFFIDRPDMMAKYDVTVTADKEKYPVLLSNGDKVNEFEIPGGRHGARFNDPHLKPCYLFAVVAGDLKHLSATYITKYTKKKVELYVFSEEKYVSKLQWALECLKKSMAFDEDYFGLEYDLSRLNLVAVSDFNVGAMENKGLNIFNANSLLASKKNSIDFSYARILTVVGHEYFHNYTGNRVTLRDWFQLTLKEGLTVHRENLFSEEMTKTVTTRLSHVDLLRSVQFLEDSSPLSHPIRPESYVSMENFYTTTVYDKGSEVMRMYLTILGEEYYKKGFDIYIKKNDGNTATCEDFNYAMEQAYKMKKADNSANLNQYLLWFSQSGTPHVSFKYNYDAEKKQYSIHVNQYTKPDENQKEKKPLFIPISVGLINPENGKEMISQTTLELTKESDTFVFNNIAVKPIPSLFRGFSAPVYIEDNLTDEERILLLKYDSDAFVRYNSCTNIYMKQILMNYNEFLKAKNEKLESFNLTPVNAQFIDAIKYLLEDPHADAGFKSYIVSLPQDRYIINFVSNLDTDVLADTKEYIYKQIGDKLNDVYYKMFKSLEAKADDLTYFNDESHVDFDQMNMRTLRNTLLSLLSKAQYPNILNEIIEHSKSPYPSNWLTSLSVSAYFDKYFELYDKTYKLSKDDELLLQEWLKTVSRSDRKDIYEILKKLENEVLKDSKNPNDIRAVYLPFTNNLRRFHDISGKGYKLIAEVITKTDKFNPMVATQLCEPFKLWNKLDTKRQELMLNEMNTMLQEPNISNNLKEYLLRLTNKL
Put plainly: P. falciparum M1AAP inhibitors, biochemical, fluorogenic H-Leu-NHMec substrate, 1536-well (AID 1445). Also noted: species or system Plasmodium falciparum 3D7, 3D7.

The target of experiment [8] is T3, Intestinal-type alkaline phosphatase (Homo sapiens, UniProt P09923). The experiment can be described thus: human IAP inhibitors, dose response, biochemical, luminescent, uHTS hits, set 2 (AID 488793). It is filed as functional.
T3 sequence (P09923 whole entry): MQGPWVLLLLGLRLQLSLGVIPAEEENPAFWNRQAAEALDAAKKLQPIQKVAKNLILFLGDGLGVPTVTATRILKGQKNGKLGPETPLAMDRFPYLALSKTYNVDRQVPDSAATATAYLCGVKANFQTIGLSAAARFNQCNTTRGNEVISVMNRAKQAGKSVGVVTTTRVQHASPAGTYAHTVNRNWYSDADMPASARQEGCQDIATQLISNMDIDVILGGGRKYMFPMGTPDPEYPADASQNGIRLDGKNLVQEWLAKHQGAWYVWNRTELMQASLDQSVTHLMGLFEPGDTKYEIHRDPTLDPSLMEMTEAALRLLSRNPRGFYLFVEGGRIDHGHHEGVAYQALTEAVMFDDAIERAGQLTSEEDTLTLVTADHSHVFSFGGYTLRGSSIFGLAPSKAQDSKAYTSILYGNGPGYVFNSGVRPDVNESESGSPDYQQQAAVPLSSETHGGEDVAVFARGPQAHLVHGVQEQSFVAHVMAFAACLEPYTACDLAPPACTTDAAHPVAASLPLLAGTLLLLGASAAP
Experiment [9] addresses T3, Intestinal-type alkaline phosphatase. The experiment can be described thus: Dose Response confirmation of uHTS hits from a small molecule inhibitors of human intestinal alkaline phosphatase via a luminescent assay. [Related pubchem assays (depositor defined):AID2544, AID2574]. It counts as functional.
Experiment [10] has as its target 26S proteasome non-ATPase regulatory subunit 14 (Homo sapiens, UniProt O00487). Put plainly: inhibition of proteasome subunit RPN11 – biochemical, fluorescence polarization, uHTS hits, confirmation (AID 602368). It counts as functional.
Experiment [11] deals with Phosphomannomutase 2 (Homo sapiens, UniProt O15305). Put plainly: Counter screen SAR assay for PMM2 inhibitors via a fluorescence intensity assay. [Related pubchem assays (depositor defined):AID1545, AID1574].
Chain of Phosphomannomutase 2 (O15305 whole entry): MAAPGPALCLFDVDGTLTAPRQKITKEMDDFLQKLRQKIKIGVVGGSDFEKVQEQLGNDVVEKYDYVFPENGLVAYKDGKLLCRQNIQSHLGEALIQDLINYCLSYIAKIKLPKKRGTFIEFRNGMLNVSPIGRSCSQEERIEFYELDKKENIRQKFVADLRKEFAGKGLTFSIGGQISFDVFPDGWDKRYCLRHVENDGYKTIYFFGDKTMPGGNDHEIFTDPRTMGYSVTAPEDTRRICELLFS
Experiment [12] deals with Phosphoethanolamine/phosphocholine phosphatase (Homo sapiens, UniProt Q8TCT1). The experiment can be described thus: SAR assay for compounds that inhibit PHOSPHO1. [Related pubchem assays (depositor defined):AID1545, AID1565, AID1574].
Chain of Phosphoethanolamine/phosphocholine phosphatase (Q8TCT1 whole entry): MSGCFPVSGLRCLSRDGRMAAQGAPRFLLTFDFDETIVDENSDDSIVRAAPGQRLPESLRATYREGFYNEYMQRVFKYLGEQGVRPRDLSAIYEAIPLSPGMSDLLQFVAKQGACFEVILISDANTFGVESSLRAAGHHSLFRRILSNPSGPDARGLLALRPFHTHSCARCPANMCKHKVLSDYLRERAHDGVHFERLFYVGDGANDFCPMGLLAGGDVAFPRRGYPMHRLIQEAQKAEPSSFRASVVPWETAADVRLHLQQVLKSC
In experiment [13] the target is T4, Mannose-6-phosphate isomerase (Homo sapiens, UniProt P34949).
T4 sequence (P34949 whole entry): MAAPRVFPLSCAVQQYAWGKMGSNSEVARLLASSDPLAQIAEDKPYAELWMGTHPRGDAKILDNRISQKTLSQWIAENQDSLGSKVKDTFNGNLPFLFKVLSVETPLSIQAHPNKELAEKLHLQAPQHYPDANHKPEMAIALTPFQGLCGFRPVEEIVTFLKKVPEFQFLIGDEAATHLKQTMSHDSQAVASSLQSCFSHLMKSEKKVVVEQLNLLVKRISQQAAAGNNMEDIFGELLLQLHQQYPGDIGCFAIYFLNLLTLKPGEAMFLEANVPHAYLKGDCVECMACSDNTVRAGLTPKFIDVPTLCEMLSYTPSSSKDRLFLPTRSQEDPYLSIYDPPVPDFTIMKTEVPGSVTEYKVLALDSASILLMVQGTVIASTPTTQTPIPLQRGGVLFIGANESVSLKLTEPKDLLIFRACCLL
Put plainly: PMI enzyme inhibitors, confirmation, biochemical, fluorescence intensity (AID 1535).

The source made the active and inactive calls.

Chain of Intestinal-type alkaline phosphatase (Mus musculus, UniProt P24822) (P24822 whole entry): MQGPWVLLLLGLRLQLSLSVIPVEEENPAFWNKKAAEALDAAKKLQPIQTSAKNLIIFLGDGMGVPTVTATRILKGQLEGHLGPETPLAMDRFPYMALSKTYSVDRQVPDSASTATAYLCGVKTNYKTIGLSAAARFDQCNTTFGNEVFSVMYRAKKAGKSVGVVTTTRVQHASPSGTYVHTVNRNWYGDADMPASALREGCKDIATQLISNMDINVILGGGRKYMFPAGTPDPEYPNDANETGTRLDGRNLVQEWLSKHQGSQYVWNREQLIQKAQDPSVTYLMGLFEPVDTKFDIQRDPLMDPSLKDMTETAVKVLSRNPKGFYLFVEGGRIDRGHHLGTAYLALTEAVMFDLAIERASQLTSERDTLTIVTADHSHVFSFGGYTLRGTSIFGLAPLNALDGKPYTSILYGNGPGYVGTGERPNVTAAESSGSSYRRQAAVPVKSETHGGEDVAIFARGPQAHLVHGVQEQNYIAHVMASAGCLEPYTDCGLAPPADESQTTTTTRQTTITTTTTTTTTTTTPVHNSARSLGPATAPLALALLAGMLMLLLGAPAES
Chain of 26S proteasome non-ATPase regulatory subunit 14 (O00487 whole entry): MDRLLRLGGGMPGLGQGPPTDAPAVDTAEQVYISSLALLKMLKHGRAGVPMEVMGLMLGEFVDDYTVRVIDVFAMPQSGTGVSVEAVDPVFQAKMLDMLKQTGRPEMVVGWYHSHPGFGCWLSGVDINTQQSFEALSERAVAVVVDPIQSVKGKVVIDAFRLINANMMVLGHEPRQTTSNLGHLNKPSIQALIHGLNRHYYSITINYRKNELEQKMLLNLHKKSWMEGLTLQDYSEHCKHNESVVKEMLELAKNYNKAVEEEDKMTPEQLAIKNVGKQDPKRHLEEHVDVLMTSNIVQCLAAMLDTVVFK

Take `Cc1ccc(C(=O)O/N=C(\N)c2ccc(Br)cc2)cc1`: the AC50 in [1] is 48.5 µM (active).
Consider `O=C(NN1C(=O)/C(=C/c2ccc(O)c([N+](=O)[O-])c2)SC1=S)c1ccccc1Cl`, for which the IC50 in experiment [2] is 29.8 µM (active); in [3], 10.6 µM (active); in experiment [4], 32 µM (active); in [5], 82.1 µM (active); in experiment [7] it was 71.1 µM (active); in [8] it was 22.9 µM (active). Moreover, the figures for the IC50 in experiment [9] and in experiment [10] were 25.4 µM (inactive) and 39.7 µM (active), respectively. In experiment [6], the AC50 is 2.86 µM (active).
Turning to `O=C1c2ccccc2C(=O)c2c1ccc1c(=O)n(-c3cccc([N+](=O)[O-])c3)sc21`, the IC50 in experiment [11] was > 100 µM (inactive); in [12], 3.6 µM (inactive); in [13] it was > 50 µM (inactive).

The values are drawn from ChEMBL document CHEMBL1201862, “PubChem BioAssay data set” (2004).
